Test results reported in PMC5755953, “Identification of Allosteric Modulators of Metabotropic Glutamate 7 Receptor Using Proteochemometric Modeling” (Journal of Chemical Information and Modeling, 2017).

Experiments:
[1] = tested on: mGlu7; design: method as in PMID 16339898; settings: known reference compound, agonist/PAM; cited from earlier work
[2] = tested on: mGlu7; design: method as in PMID 17609420; settings: known reference compound, allosteric antagonist/NAM; cited from earlier work
[3] = biological target: T1, mGlu7 receptor (Homo sapiens, UniProt Q14831); assay: mGlu7 PAM assay (Ca2+ response, concentration response); type: cell-based; settings: confirmed hits of virtual screening; for EC50: concentration response, read-out: mGlu7 PAM pEC50 (converted)
T1 construct: expressed in transfected cells; host or cells: HEK 293 cells

[4] = tested on: mGlu1 to mGlu8 receptor; assay: mGlu receptor panel selectivity assays (activation or inactivation); type: cell-based; settings: up to concentration cutoffs of 10 μM
Method: Active hits from the VS were sourced from the Janssen corporate compound collection, no new synthesis was performed at this time, and batch purity information is provided in the Supporting Information (Table S5). The selectivity of the hits 1 to 4 was assessed by in vitro screening in the same panel of mGlu1 to mGlu8 receptor activation or inactivation assays.
(§1) Method for selectivity assays mGlu receptor panel selectivity assays: Ca2+ assays with human mGlu1, 3, 5, 7, or 8 receptor expressing HEK 293 cells were performed as reported in Lavreysen et al. (2013), except for a slight change in the procedure for mGlu5: cells expressing the human mGlu5 receptor were seeded at 40,000 cells/well in MW384. TwentyEfour hours after seeding, cells were incubated for 90 min in Ca2+ assay kit (Molecular Devices) dissolved in saline PBS supplemented with 5 mmol/L probenecid, pH 7.4 (f.c. 2.5 mmol/L probenecid as loading buffer was added on the cell layer without removal of medium) before measurements. Measurement of [35S]GTPγS binding to membranes from CHO cells expressing the rat mGlu6 receptor and membranes from L929sA cells expressing the human mGlu4 receptor were conducted also as described in Lavreysen et al.
(§2) Lavreysen H, et al. Pharmacological Characterization of JNJE40068782, a New Potent, Selective, and Systemically Active Positive Allosteric Modulator of the mGlu2 Receptor and Its

[5] = biological target: T2, mGlu4 (Homo sapiens, UniProt Q14833); assay: mGlu4 agonism assay ([35S]GTPγS binding to membranes); type: biochemical; settings: selectivity panel; read-out: pEC50 in mGlu4 agonism assay (converted)
T2 construct: expressed in transfected cells; host or cells: L929sA cells (membranes)
Method: as §1, §2

T1 sequence (Q14831 35-915): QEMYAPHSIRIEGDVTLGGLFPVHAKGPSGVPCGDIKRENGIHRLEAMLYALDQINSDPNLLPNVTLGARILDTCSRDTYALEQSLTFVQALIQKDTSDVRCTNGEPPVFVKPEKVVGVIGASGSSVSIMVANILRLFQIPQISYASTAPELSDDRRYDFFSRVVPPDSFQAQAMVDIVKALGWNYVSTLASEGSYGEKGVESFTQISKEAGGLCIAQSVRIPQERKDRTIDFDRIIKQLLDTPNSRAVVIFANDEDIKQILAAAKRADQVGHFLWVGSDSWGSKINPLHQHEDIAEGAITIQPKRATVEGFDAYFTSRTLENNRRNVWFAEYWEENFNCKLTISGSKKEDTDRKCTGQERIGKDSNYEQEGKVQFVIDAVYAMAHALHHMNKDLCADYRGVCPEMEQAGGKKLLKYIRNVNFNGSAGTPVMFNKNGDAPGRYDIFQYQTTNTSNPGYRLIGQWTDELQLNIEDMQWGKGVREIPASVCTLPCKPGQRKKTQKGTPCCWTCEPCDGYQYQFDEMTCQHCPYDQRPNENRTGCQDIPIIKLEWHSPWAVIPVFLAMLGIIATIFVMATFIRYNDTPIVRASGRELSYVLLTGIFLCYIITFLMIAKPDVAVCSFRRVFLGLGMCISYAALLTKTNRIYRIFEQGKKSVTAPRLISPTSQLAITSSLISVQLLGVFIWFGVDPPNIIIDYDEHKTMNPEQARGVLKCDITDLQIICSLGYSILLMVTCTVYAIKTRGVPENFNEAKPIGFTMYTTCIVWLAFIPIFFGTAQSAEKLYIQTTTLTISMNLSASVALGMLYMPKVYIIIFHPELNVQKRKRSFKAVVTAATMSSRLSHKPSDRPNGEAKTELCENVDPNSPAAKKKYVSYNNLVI
T2 sequence (Q14833 33-912): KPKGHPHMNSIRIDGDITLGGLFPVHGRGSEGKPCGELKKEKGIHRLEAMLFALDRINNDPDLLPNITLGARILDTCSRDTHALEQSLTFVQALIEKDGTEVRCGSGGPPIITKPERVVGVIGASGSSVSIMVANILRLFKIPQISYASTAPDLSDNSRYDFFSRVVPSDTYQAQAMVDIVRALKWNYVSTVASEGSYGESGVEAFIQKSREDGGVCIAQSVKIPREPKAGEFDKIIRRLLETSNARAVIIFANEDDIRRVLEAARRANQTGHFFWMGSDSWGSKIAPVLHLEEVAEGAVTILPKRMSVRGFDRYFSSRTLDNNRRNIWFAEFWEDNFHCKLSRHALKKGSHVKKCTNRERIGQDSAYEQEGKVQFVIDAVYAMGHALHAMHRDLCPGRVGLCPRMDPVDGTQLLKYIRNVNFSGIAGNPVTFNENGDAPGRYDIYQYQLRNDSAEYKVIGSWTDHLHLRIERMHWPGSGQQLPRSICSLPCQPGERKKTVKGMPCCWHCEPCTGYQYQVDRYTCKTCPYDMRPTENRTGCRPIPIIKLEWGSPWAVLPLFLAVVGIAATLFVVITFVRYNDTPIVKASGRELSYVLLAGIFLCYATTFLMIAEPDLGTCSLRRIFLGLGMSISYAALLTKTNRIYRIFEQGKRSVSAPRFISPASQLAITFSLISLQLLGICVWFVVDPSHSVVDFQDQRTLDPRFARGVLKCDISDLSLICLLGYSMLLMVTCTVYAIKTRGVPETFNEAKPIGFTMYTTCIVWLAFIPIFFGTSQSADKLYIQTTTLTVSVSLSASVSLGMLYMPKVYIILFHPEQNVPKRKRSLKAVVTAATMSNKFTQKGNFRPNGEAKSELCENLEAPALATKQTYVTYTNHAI

| SMILES | Emax [3] | EC50 [3] | activity in panel of mGlu1 to mGlu8 receptor activation or inactivation assays [4] | also measured |
| --- | --- | --- | --- | --- |
| c1ccc(C(NCCNC(c2ccccc2)c2ccccc2)c2ccccc2)cc1 [AMN-082] | – | – | – | PAM activity reported in cAMP and Ca2+ assays [1]: Active PAM reported in cAMP but not Ca2+ assays |
| COc1ccc(-c2cc3onc(-c4ccncc4)c3c(=O)n2C)cc1 [MMPIP] | – | – | – | mGlu7-ant pIC50 [2]: 7 |
| COc1cc(F)cc(COc2ccc(C(=O)N[C@H](C)C(C)(C)C)cn2)c1 [compound 1] | 86% | 12.6 µM | No activity | – |
| COc1c(F)cccc1COc1ccc(C(=O)N[C@H](C)C(C)(C)C)cn1 [compound 2] | 103% | 12.6 µM | No activity | – |
| CNC(=O)N1CCCC(CN2CCC(OC(c3ccccc3)c3ccccc3)CC2)C1 (stereo not shown) [compound 3] | – | – | – | EC50 [5]: 0.631 µM |

Now from value to molecule, other results behind:

| Emax [3] | EC50 [3] | SMILES | activity in panel of mGlu1 to mGlu8 receptor activation or inactivation assays [4] | also measured |
| --- | --- | --- | --- | --- |
| 57% | 31.6 µM | CC(C)(C)OC(=O)N1CCc2ccc(-n3cc(-c4ccncc4)cn3)cc2CC1 [compound 4] | No activity | – |
| 99% | 15.8 µM | COc1ccc(CN2CCc3c(nc(N4CCC(C)CC4)[nH]c3=O)C2)cc1 [compound 5] | – | – |
| 65% | > 30.2 µM | CC1CCN(c2nc(-c3ccncc3)nc3cnccc23)CC1 [compound 6] | – | – |
